{"source": "ChEMBL document CHEMBL1124272", "about": "“Only one pharmacophore is required for the kappa opioid antagonist selectivity of norbinaltorphimine” (J Med Chem, 1988)", "key": {"[1]": {"target": "Mu-type opioid receptor (Cavia porcellus) (UniProt P97266)", "sequence (P97266 whole entry)": "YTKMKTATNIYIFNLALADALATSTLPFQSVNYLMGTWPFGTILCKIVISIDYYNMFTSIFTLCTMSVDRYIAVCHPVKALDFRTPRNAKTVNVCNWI", "settings": "Ileum, 100 nM", "description": "Antagonistic activity at Opioid receptor mu 1 in electrically stimulated Guinea pig ileum using morphine as the agonist at 100 nM"}, "[2]": {"target": "Delta-type opioid receptor (Homo sapiens) (UniProt P41143)", "sequence (P41143 whole entry)": "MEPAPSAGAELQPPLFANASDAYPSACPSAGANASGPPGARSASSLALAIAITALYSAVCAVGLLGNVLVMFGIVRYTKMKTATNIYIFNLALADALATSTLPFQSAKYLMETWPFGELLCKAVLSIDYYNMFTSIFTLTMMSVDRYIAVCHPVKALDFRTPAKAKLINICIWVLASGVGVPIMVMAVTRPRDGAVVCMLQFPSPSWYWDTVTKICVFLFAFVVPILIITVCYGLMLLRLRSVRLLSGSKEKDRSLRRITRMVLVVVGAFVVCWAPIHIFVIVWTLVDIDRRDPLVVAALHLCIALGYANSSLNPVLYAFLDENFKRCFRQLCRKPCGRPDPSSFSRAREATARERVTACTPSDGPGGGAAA", "settings": "Cavia porcellus; Ileum; 20 nM", "description": "Antagonistic activity at Opioid receptor delta 1 in electrically stimulated Guinea pig ileum using DADLE as the agonist at 20 nM concentration"}, "[3]": {"target": "Kappa-type opioid receptor (Cavia porcellus) (UniProt P41144)", "sequence (P41144 whole entry)": "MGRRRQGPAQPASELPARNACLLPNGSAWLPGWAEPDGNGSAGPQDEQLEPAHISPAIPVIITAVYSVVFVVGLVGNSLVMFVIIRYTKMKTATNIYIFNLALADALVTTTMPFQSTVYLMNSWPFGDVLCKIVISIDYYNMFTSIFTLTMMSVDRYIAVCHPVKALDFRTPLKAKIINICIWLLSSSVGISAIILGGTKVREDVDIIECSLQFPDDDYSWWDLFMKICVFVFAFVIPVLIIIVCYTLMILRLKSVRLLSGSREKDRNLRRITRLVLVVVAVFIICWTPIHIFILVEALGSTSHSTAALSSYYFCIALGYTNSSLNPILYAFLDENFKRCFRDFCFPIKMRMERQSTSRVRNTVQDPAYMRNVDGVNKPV", "settings": "Ileum, 20 nM", "description": "Antagonistic activity at Opioid receptor kappa 1 in electrically stimulated Guinea pig ileum using ethylketazocine as the agonist at 20 nM concentration"}, "[4]": {"target": "Mu-type opioid receptor (Cavia porcellus) (UniProt P97266)", "settings": "Ileum, 20 nM", "description": "Antagonistic activity at Opioid receptor mu 1 in electrically stimulated Guinea pig ileum using morphine as the agonist at 20 nM concentration"}, "[5]": {"target": "Delta-type opioid receptor (Homo sapiens) (UniProt P41143)", "settings": "Cavia porcellus; Ileum; 20 nM", "remark": "listed apart in the source", "description": "Antagonistic activity at Opioid receptor delta 1 in electrically stimulated Guinea pig ileum using DADLE as the agonist at 20 nM"}}, "data": [{"smiles": "Oc1ccc2c3c1O[C@@H]1c4[nH]c5c(c4C[C@]4(O)[C@H](C2)N(CC2CC2)CC[C@@]314)C[C@]1(O)[C@@H]2Cc3ccc(O)c4c3[C@]1(CCN2CC1CC1)[C@@H]5O4", "values": [{"measurement": "Ke", "setting": "[1]", "result": 77, "unit": "nM"}]}, {"smiles": "Oc1ccc2c3c1O[C@H]1c4[nH]c5c(c4C[C@@]4(O)[C@@H](C2)N(CC2CC2)CC[C@]314)C[C@]1(O)[C@@H]2Cc3ccc(O)c4c3[C@]1(CCN2CC1CC1)[C@@H]5O4", "values": [{"measurement": "Ke", "setting": "[2]", "result": 1.3, "unit": "nM"}, {"measurement": "Ke", "setting": "[3]", "result": 0.08, "unit": "nM"}, {"measurement": "Ke", "setting": "[4]", "result": 1.1, "unit": "nM"}]}, {"smiles": "Oc1ccc2c3c1O[C@H]1c4[nH]c5c(c4C[C@@]4(O)[C@@H](C2)N(CC2CC2)CC[C@]314)C[C@@]1(O)[C@H]2Cc3ccc(O)c4c3[C@@]1(CCN2CC1CC1)[C@H]5O4", "values": [{"measurement": "Ke", "setting": "[5]", "result": 10, "unit": "nM"}]}]}
